The results in this text go back to patent publication US9926529B2, “Derivation of neural stem cells and dopaminergic neurons from human pluripotent stem cells” (International Stem Cell Corporation, priority 2012, dated 2018).

Where a name gives a salt, the structure may show the parent alone. Read-outs that look alike come from different tables or passages of the source.

The test deals with hPSC-NSCs. In words: RT-PCR expression of dopamine neuron genes in hPSC-NSCs treated with small molecule hits. It is filed as cell-based, human. As to conditions: for fold induction at 2.5 µM: Homo sapiens, Neuron, 336 h. The method, then:
The method specifically involved treating both hESC-H9-NSCs (Invitrogen) and hPSC-NSCs with Purmorphamine (2 μM) and FGF8 (100 ng/mL) in NB medium [NeuroBasal medium, 1× GlutaMAX, 1× N2/B27 Supplement (Invitrogen)] for 7 days. After 7 days of Purmorphamine and FGF8 treatment, the NSCs were dissociated with Accutase (Sigma) and plated 20,000 cells/mL into Matrigel coated 96 well plates and treated with small molecule library (Torcris 1120 Biologically Active Compounds) at 2.5 μM final concentration for two weeks (FIG. 6A). Two weeks after treatment with small molecules, all wells were visually observed and scored based on neurite density and dopamine release. For measuring neurite density, cells were fixed with 4% paraformaldehyde and phase contrast images were acquired using Cellavista Cell Imaging System (Roche Applied Science) from randomly selected fields. Neurite density was measured using the Cellavista density software image processing program. Each experimental condition was done in duplicate wells, and at least three independent experiments were conducted to acquire the final results.
Conditioned medium from the top neurite inducers (Table 1) (wells containing the highest density of neurites compare to control 0.1% DMSO treated) were collected and analyzed using a dopamine ELISA assay (Cosmo Bio). Conditioned medium was collected from samples containing 50,000 cells per well and centrifuged at 3000 RPM to remove cell debris. Supernatant was then collected and analyzed for quantitative determination of dopamine using a commercial dopamine ELISA assay kit (CusaCosmo Bio). Data analysis was performed using the microtiter plate reader (BIO-TEK Synergy 2). The results presented are from three independent experiments (n=3) and represented as mean±standard error of mean (s.e.m.) and statistical analysis was performed using the two-tailed Student's t-test with a confidence level of 95% (α=0.05) with statistical significance of P<0.05. Additionally, total RNA from each well were collected and analyze by RT-PCR for expression of TuJ1, MAP2, TH, GRK2, EN1, DAT, AADC, PAX2, NURR1, PITX3 and LMX1B from hPSC-NSCs (Table 2). […] Analysis of the ELISA data indicated the top small molecule neurite inducers produced higher levels of dopamine than control non-treated cells (1.5 ng/mL). […] The percentages of TH positive cells produced by chemical treatment with Kenpaullone (33%), Guggulsterone (35%), Kynurenic Acid (19%), Immedthridine Dihydrobromide (21%), and Dimaprit Dihydrochloride (18%) were higher than 15% of TH positive cells obtained from hPSC-NSCs differentiated for ≥1 month using a standard dopaminergic differentiation medium (BDNF 20 ng/mL, GDNF 20 ng/mL, cAMP 200 μM, Abscorbic Acid 200 μM, TGFβ3 2 ng/mL and DAPT).
Total RNA from at least triplicate samples with around 1 million cells each was isolated using either QIAsymphony automatic purification system or RNeasy Plus Mini kit, according to manufacturer's instructions (Qiagen). Total RNA was used for reverse transcription with the iScript cDNA synthesis kit (Biorad) and Px2 Thermal Cycler (Thermo Scientific). To analyze gene expression, PCR reactions were performed in duplicate using 1/25-th of the cDNA per reaction and the QuantiTect Primer Assay and Quantitest SYBR Green master mix (Qiagen). qPCR was performed using the Rotor-Gene Q (Qiagen) 5 min at 95° C., 5 s at 92° C., and 20 s at 60° C. for 37 cycles followed by melt to check the specificity of the amplicons from 50 to 99° C. raising by 1° C. each step. Relative quantification was performed against a standard curve and quantified values were normalized against the input determined by PPIG. The primers used for the analysis are listed in Supplementary Table S1. […]

The mark [1] stands for this setting: hPSC-NSCs primed 7 days with Purmorphamine and FGF8, small molecule 2.5 μM for two weeks.
Where [2] appears, read: hPSC-NSCs primed 7 days with Purmorphamine and FGF8, small molecule 2.5 μM for two weeks, read-out: DDC (AADC) expression by RT-PCR.
Where [3] appears, read: hPSC-NSCs primed 7 days with Purmorphamine and FGF8, small molecule 2.5 μM for two weeks, read-out: EN1 expression by RT-PCR.
Where [4] appears, read: hPSC-NSCs primed 7 days with Purmorphamine and FGF8, small molecule 2.5 μM for two weeks, read-out: KCNJ6 expression by RT-PCR.
The mark [5] stands for this setting: hPSC-NSCs primed 7 days with Purmorphamine and FGF8, small molecule 2.5 μM for two weeks, read-out: LMX1B expression by RT-PCR.
Where [6] appears, read: hPSC-NSCs primed 7 days with Purmorphamine and FGF8, small molecule 2.5 μM for two weeks, read-out: MAP2 expression by RT-PCR.
[7] abbreviates: hPSC-NSCs primed 7 days with Purmorphamine and FGF8, small molecule 2.5 μM for two weeks, read-out: NR4A2 (NURR1) expression by RT-PCR.
Where [8] appears, read: hPSC-NSCs primed 7 days with Purmorphamine and FGF8, small molecule 2.5 μM for two weeks, read-out: PITX3 expression by RT-PCR.
[9] abbreviates: hPSC-NSCs primed 7 days with Purmorphamine and FGF8, small molecule 2.5 μM for two weeks, read-out: Pax2 expression by RT-PCR.
The mark [10] stands for this setting: hPSC-NSCs primed 7 days with Purmorphamine and FGF8, small molecule 2.5 μM for two weeks, read-out: SLC6A3 (DAT) expression by RT-PCR.
[11] abbreviates: hPSC-NSCs primed 7 days with Purmorphamine and FGF8, small molecule 2.5 μM for two weeks, read-out: TH1 expression by RT-PCR.
[12] abbreviates: hPSC-NSCs primed 7 days with Purmorphamine and FGF8, small molecule 2.5 μM for two weeks, read-out: Tubb3 expression by RT-PCR.

For `N[C@@H](CS(=O)O)C(=O)O` [L-Cysteinesulfinic acid], under setting [1], the “DDC (AADC) expression by RT-PCR” value is on record as 17.27, the “EN1 expression by RT-PCR” value came to 5.76, the “KCNJ6 (GRK2) expression by RT-PCR” value stood at 3.02 and the “LMX1B expression by RT-PCR” value worked out at 2.66. Moreover, under setting [1], the “MAP2 expression by RT-PCR” value stood at 9.52, the “NR4A2 (NURR1) expression by RT-PCR” value is on record as 2.02, the “Pax2 expression by RT-PCR” value was 0.22 and the “SLC6A3 (DAT) expression by RT-PCR” value turned out to be 1.54. Under setting [1], the “TH1 expression by RT-PCR” value worked out at 7.84 and the “Tubb3 expression by RT-PCR” value stood at 3.41.

Take `c1ccc(-c2[nH]ncc2-c2ccnc3ccccc23)nc1` [LY 364947]: under setting [1], the “DDC (AADC) expression by RT-PCR” value is on record as 64.48, the “EN1 expression by RT-PCR” value was found to be 7.42, the “KCNJ6 (GRK2) expression by RT-PCR” value amounted to 1.09 and the “MAP2 expression by RT-PCR” value is listed as 10.48. Also, under setting [1], the “NR4A2 (NURR1) expression by RT-PCR” value is 3.01, the “SLC6A3 (DAT) expression by RT-PCR” value is 5.08, the “TH1 expression by RT-PCR” value is listed as 5.23 and the “Tubb3 expression by RT-PCR” value is on record as 4.23.

On to `O=C1N(c2ccccc2)c2ccccc2C1(Cc1ccncc1)Cc1ccncc1` [Linopirdine dihydrochloride], for which the fold induction at 2.5 µM was 7.02 under setting [2]; 4.06 under setting [3]; 0.16 under setting [4]; 2.84 under setting [5]; 7.02 under setting [6]; 0.69 under setting [7]. In addition, the fold induction at 2.5 µM worked out at 0.26 under setting [8]; 0.3 under setting [9]; 0.28 under setting [10]; 8.61 under setting [11]; 3.74 under setting [12].

Consider `CC1(C)NC(=O)N(c2ccc([N+](=O)[O-])c(C(F)(F)F)c2)C1=O` [Nilutamide], for which the fold induction at 2.5 µM worked out at 172 under setting [2]; 5.33 under setting [3]; 2.1 under setting [4]; 2.55 under setting [5]; 10.6 under setting [6]; 1.43 under setting [7]. Moreover, the fold induction at 2.5 µM is, setting by setting: under setting [8], 0.27; under setting [9], 0.9; under setting [10], 2.07; under setting [11], 10.1; under setting [12], 3.81.

As for `CCN1CCC[C@H]1CNC(=O)c1c(OC)ccc(Br)c1OC` [Remoxipride hydrochloride], the fold induction at 2.5 µM is, setting by setting: under setting [2], 13.8; under setting [3], 6.6; under setting [4], 0.93; under setting [5], 3.16; under setting [6], 11.5; under setting [7], 3.21. Besides, the fold induction at 2.5 µM runs as follows: under setting [8], 0.69; under setting [9], 0.86; under setting [10], 6.41; under setting [11], 12; under setting [12], 5.73.

With `CC1=C(/C=C/C(C)=C/C=C/C(C)=C/C(=O)O)C(C)(C)CCC1` [Retinoic acid], the fold induction at 2.5 µM runs as follows: under setting [2], 110; under setting [3], 12.8; under setting [4], 2.8; under setting [5], 1.25; under setting [6], 7.7; under setting [7], 153. Besides, the fold induction at 2.5 µM under setting [8] amounted to 0.04; the fold induction at 2.5 µM under setting [9] is 0.5; the fold induction at 2.5 µM under setting [10] was determined as 1.99; the fold induction at 2.5 µM under setting [11] amounted to 1.99; the fold induction at 2.5 µM under setting [12] amounted to 7.05.

As to `CCOC(=O)c1ncn2c1CN(C)C(=O)c1cc(N=[N+]=[N-])ccc1-2` [Ro 15-4513], under setting [1], the “DDC (AADC) expression by RT-PCR” value is on record as 12.88, the “EN1 expression by RT-PCR” value is listed as 5.9, the “KCNJ6 (GRK2) expression by RT-PCR” value stood at 0.09 and the “MAP2 expression by RT-PCR” value was found to be 7.19. Also, under setting [1], the “NR4A2 (NURR1) expression by RT-PCR” value came to 0.9, the “PITX3 expression by RT-PCR” value was determined as 0.72, the “SLC6A3 (DAT) expression by RT-PCR” value came out at 0.46 and the “TH1 expression by RT-PCR” value was determined as 8.49. Under setting [1], the “Tubb3 expression by RT-PCR” value worked out at 4.9.

Consider `FC(F)(F)c1cccc(-c2noc(-c3cc(-c4ccccc4)c(C(F)(F)F)s3)n2)c1` [SEW 2871], for which the fold induction at 2.5 µM runs as follows: under setting [2], 68.3; under setting [3], 8.08; under setting [4], 0.88; under setting [5], 3.65; under setting [6], 12.3; under setting [7], 2.36. The fold induction at 2.5 µM amounted to 1.59 under setting [9], 32.1 under setting [10], 7.6 under setting [11] and 5.17 under setting [12].

Take `O=C(CCCN1CCC2(CC1)C(=O)NCN2c1ccccc1)c1ccc(F)cc1` [Spiperone hydrochloride]: the fold induction at 2.5 µM is 13.1 under setting [2]; 7.4 under setting [3]; 0.24 under setting [4]; 9.66 under setting [6]; 0.58 under setting [7]; 0.18 under setting [8]. Also, the fold induction at 2.5 µM under setting [10] is 1.25, the fold induction at 2.5 µM under setting [11] turned out to be 11.1 and the fold induction at 2.5 µM under setting [12] was found to be 3.57.

For the molecule `C/C(=C\c1ccc(C(=O)O)cc1)c1ccc2c(c1)C(C)(C)CCC2(C)C` [TTNPB], under setting [1], the “DDC (AADC) expression by RT-PCR” value is recorded as 21.95, the “EN1 expression by RT-PCR” value was 9.42, the “KCNJ6 (GRK2) expression by RT-PCR” value amounted to 0.69 and the “LMX1B expression by RT-PCR” value was 1.45. For the same molecule, under setting [1], the “MAP2 expression by RT-PCR” value was 6.36, the “NR4A2 (NURR1) expression by RT-PCR” value is given as 14.8, the “Pax2 expression by RT-PCR” value is reported as 0.09 and the “SLC6A3 (DAT) expression by RT-PCR” value is listed as 0.5. Also, under setting [1], the “TH1 expression by RT-PCR” value is given as 5.5 and the “Tubb3 expression by RT-PCR” value is listed as 4.64.

Turning to `S=C(NC1CCCCC1)N1CCC(c2cnc[nH]2)CC1` [Thioperamide], the fold induction at 2.5 µM was determined as 25.5 (read-out: SLC6A3 (DAT) expression by RT-PCR); 95.6 under setting [2]; 7.72 under setting [3]; 2.21 under setting [4]; 3.81 under setting [5]; 13.2 under setting [6]. The fold induction at 2.5 µM by setting is: under setting [7], 3.43; under setting [8], 0.28; under setting [9], 1.15; under setting [11], 8.38; under setting [12], 5.6.
